Data taken from patent US11060715B2, “Ex vivo proliferation of epithelial cells” (PROPAGENIX INC., priority 2015, dated 2021).
Where a name gives a salt, the structure may show the parent alone.

Columns and labels:
keratinocytes = test: Expansion of keratinocytes in KSFM supplemented with combinations of components; format: cell-based, human; conditions: for cell growth rate: KSFM with EGF, isoproterenol, A 83-01 and rHA
Procedure: In another experiment, keratinocytes were cultured in KSFM supplemented with various combinations of components.
In another experiment, keratinocytes were cultured in the presence of increasing doses of ROCK inhibitor (Y-27632) or Myosin II ATPase inhibitor (blebbistatin), in KSFM supplemented with EGF (0.5 ng/mL), isoproterenol (3 μM), A 83-01 (1 μM), and recombinant human serum albumin (expressed in rice; 100 μg/mL).
In another experiment, keratinocytes were cultured in the presence of increasing doses (between 10 nM to 2 μM) of retinoic acid receptors (RAR) antagonist BMS-453 or retinoic acid receptors (RAR) antagonist BMS-195614, in KSFM supplemented with EGF (0.5 ng/mL), isoproterenol (3 μM), A 83-01 (1 μM), and recombinant human serum albumin (expressed in rice; 100 μg/mL).

[1] = system: late passage prostate epithelial cells; test: Proliferation of late passage prostate epithelial cells in KSFM plus compounds, 5 days; format: cell-based, human; conditions: for total cell number after 5 days: KSFM plus individual compound alone, 1 μM and 0.2 μM (FIG. 16)
Procedure: Stocks of certain chemicals used in the study were prepared by dissolving in DMSO to 10 mM. The chemical stocks were added to culture media to desired final concentrations, as described in Examples 2 to 5 and shown in FIGS. 1 to 17, from the time when cell culture was initiated.
In a control experiment with no added compound, there was minimum increase of cell numbers after 5 days.
In control experiment with no inhibitor added to KSFM, there was minimum increase of cell numbers after 5 days. […] As described above, these include Rho kinase inhibitors (i.e., Rho-associated protein kinase inhibitors) such as Y-27632, SR 3677, GSK 429286 and Thiazovivin; PAK1 inhibitor IPA-3; and myosin II inhibitor (i.e., non-muscle myosin II (NM II) inhibitor) Blebbistatin.

[2] = system: human telomerase reverse transcriptase (hTERT) gene; test: hTERT expression by quantitative real-time PCR in prostate epithelial cells; format: cell-based; conditions: KSFM
Procedure: (§1) Total RNA was prepared using TRIzol® Plus RNA Purification Kit (Life Technologies, 12183-555) and PureLink® RNA Mini Kit (Life Technologies, 12183018A), following the manufacturer's instructions. One hundred nanogram total RNA was used for the determination of human telomerase reverse transcriptase (hTERT) expression using the TaqMan® RNA-to-CT™ 1-Step Kit (Life Technologies, 4392938), following the protocol provided by the supplier. hTERT primers and Taqman® probe used were as follows: forward primer, 5′-[…]-3′ (SEQ ID NO:7), reverse primer, 5′-[…]-3′ (SEQ ID NO:8) and Taqman® probe, 5′-[…]-3′ (SEQ ID NO:9).
(§2) In this example, hTERT expression in epithelial cells was assessed in the presence of an ALK5 inhibitor, a Rho kinase inhibitor (i.e., a Rho-associated protein kinase inhibitor), or both. Expression of hTERT gene was examined by quantitative real-time PCR in bronchial epithelial cells and prostate epithelial cells. The cells were treated with an ALK5 inhibitor, A83-01, or a Rho kinase inhibitor (i.e., a Rho-associated protein kinase inhibitor), Y-27632, or both inhibitors, at different passages in KSFM.
As shown in FIG. 6A and FIG. 6B, prostate epithelial cells at early passage (p2) expressed low level of hTERT, which quickly diminished at passage 3 and became non-detectible by passage 5.

[3] = system: human telomerase reverse transcriptase (hTERT) gene; test: hTERT expression by quantitative real-time PCR in bronchial epithelial cells; format: cell-based; conditions: KSFM
Procedure: as §1, §2

[4] = system: prostate epithelial cells; test: Growth (population doublings) of prostate epithelial cells in culture; format: cell-based, human; conditions: added to KSFM
Procedure: (§3) Epithelial cells (prostate epithelial cells and bronchial epithelial cells) were plated at 3,000-10,000 viable cells/cm^2 in tissue culture vessels, using culture medium as indicated in Examples 2 to 5 and FIGS. 1 to 17, and incubated at 37° C. with 5% CO2. The medium was changed every 2 or 3 days. Cells were sub-cultured using standard trypsinization method when they were about 70-90% confluent. Total cell number was determined using the Countess II Automated Cell Counter (Life Technologies, AMQAX1000) following manufacturer's instructions.
(§4) A formula used for the calculation of population doublings (PD) is presented in Equation A: n=3.32*(log Y−log I)+X Equation A where n=the final PD number at end of a given subculture, Y=the cell yield at the time of harvesting, I=the cell number used as inoculum to begin that subculture, and X=the doubling level of the inoculum used to initiate the subculture being quantitated.
(§5) Prostate and bronchial epithelial cells were grown in KSFM in the presence of Rho kinase inhibitor (i.e., Rho-associated protein kinase inhibitor) Y-27632.
To examine the effects of additional in vitro and/or ex vivo growth conditions, prostate epithelial cells were grown in KSFM or PrEGM in the presence of media alone, ALK5 inhibitor A83-01, Rho kinase inhibitor (i.e., Rho-associated protein kinase inhibitor) Y-27632, or both (with or without collagen).

[5] = system: bronchial epithelial cells; test: Growth (population doublings) of bronchial epithelial cells in culture; format: cell-based, human; conditions: added to KSFM
Procedure: as §3, §4, §5
Similar to the experiment above, bronchial epithelial cells were grown in KSFM in the presence of media alone, ALK5 inhibitor A83-01, Rho kinase inhibitor (i.e., Rho-associated protein kinase inhibitor) Y-27632, or both (with or without collagen).

[6] = used together with A83-01 in KSFM, 5 μM, 1 μM and 0.2 μM (FIG. 17)
[7] = increasing doses (between 10 nM to 2 μM)

Row | SMILES | total cell number after 5 days ([1]; 5 μM) | cell proliferation after 5 days [1, 6] | further results
1 | Cc1ccc2c(c1)C(=O)C1(O)CCN(c3ccccc3)C1=N2 (racemic) [Blebbistatin, (±)-1,2,3,3a-Tetrahydro-3a-hydroxy-6-methyl-1-phenyl-4H-pyrrolo[2,3-b]quinolin-4-one] | did not increase proliferation | synergistically increased | cell growth rate (keratinocytes; increasing doses): No significant increase of cell growth rate
2 | Cc1cccc(-c2nn(C(=S)Nc3ccccc3)cc2-c2ccnc3ccccc23)n1 [A83-01, 3-(6-Methyl-2-pyridinyl)-N-phenyl-4-(4-quinolinyl)-1H-pyrazole-1-carbothioamide] | pronounced increase of total cell number |  | hTERT expression ([2]; early passage (p2)): quickly induced; hTERT expression ([2]; late passage (p5)): sustained measurable hTERT expression; hTERT expression ([3]; early passage (p3)): robustly induced; hTERT expression ([3]; late passage (p6)): sustained measurable hTERT expression; total population doublings [4]: also increased the total population doublings; cell proliferation after 5 days ([1]; KSFM plus compound alone (FIG. 17)): significantly increased; total population doublings [5]: also increased the total population doublings
3 | CC1(C)CC=C(c2ccccc2)c2cc(/C=C/c3ccc(C(=O)O)cc3)ccc21 [BMS-453] |  |  | proliferation of keratinocytes (keratinocytes; 100 nM, with A83-01, EGF, isoproterenol and rHA): further increased the proliferation of keratinocytes; cell growth rate (keratinocytes; [7]): further enhance cell growth rate at sub-micromolar doses
4 | CC1(C)CC=C(c2cnc3ccccc3c2)c2cc(C(=O)Nc3ccc(C(=O)O)cc3)ccc21 [BMS-195614] |  |  | cell growth rate (keratinocytes; [7]): further enhance cell growth rate at sub-micromolar doses
5 | CC1=C(C(=O)Nc2cc3cn[nH]c3cc2F)C(c2ccc(C(F)(F)F)cc2)CC(=O)N1 (stereo not shown) [GSK 429286, 4-[4-(Trifluoromethyl)phenyl]-N-(6-Fluoro-1H-indazol-5-yl)-2-methyl-6-oxo-1,4,5,6-tetrahydro-3-pyridinecarboxamide] | slight increase of total cell numbers | synergistically increased | 
6 | O=C(NC1CCOCC1)c1ccc(-c2cc(-c3c[nH]nc3-c3ccccn3)ccn2)cc1 [GW 788388, 4-[4-[3-(2-Pyridinyl)-1H-pyrazol-4-yl]-2-pyridinyl]-N-(tetrahydro-2H-pyran-4-yl)-benzamide] | pronounced increase of total cell number | little extra increase | 
7 | Oc1ccc2ccccc2c1SSc1c(O)ccc2ccccc12 [IPA-3, 1,1′-Dithiodi-2-naphthtol] | did not increase proliferation | synergistically increased | 
8 | Cc1cccc(-c2n[nH]cc2-c2ccc3ncccc3n2)n1 [RepSox, 2-(3-(6-Methylpyridine-2-yl)-1H-pyrazol-4-yl)-1,5-naphthyridine] | pronounced increase of total cell number | little extra increase | 
9 | NC(=O)c1ccc(-c2nc(-c3ccc4c(c3)OCO4)c(-c3ccccn3)[nH]2)cc1 [SB 431542, 4-[4-(1,3-benzodioxol-5-yl)-5-(2-pyridinyl)-1H-imidazol-2-yl]benzamide] | pronounced increase of total cell number | little extra increase | 
10 | CN(C)CCOc1cc(-c2cn[nH]c2)ccc1NC(=O)C1COc2ccccc2O1 (stereo not shown) [SR 3677, N-[2-[2-(Dimethylamino)ethoxy]-4-(1H-pyrazol-4-yl)phenyl-2,3-dihydro-1,4-benzodioxin-2-carboxamidedihydrochloride] | slight increase of total cell numbers | synergistically increased | 
11 | O=C(NCc1ccccc1)c1csc(Nc2ccncn2)n1 [Thiazovivin, N-Benzyl-[2-(pyrimidin-4-yl)amino]thiazole-4-carboxamide] | slight increase of total cell numbers | synergistically increased | 
